Source: patent publication US20180298405A1, “METHODS AND COMPOSITIONS TO INCREASE HUMAN SOMATIC CELL NUCLEAR TRANSFER (SCNT) EFFICIENCY BY REMOVING HISTONE H3-LYSINE TRIMETHYLATION, AND DERIVATION OF HUMAN NT-ESC” (CHILDREN'S MEDICAL CENTER CORPORATION, priority 2015, published 2018)

System: reprogramming resistant regions (RRRs) / ZGA genes
Assay: RNA-seq of late 8-cell human SCNT embryos with or without KDM4A mRNA injection (ZGA of RRRs, KDM4A-responsive genes)
Type: cell-based
Excerpt: A sliding window (size 20 kb, step size 10 kb) was used to assess the genome-wide expression level of 4-cell and 8-cell human embryos. For each window, the expression level was quantified with normalized RPM (reads per millions of uniquely mapped reads). […] These activated regions were classed into three groups based on their expression differences in human SCNT and IVF 8-cell embryos.
The SCNT embryos used for ZGA analysis were generated using oocytes donated by a single healthy person (#64) and dermal fibroblast cells from an AMD patient (DFB-8). SCNT and IVF embryos were cultured up to late 8-cell stage, when the compaction of blastomeres is initiated, then they were treated briefly with acid Tyrode solution to remove zona pellucida. To prepare for the 8-cell SCNT embryo, oocytes from a single oocyte donor, and skin fibroblast cells from a single somatic nuclear donor were used. All the procedures are the same as described in the “Human SCNT procedure and KMD4A mRNA injection” section. Only embryos that reached the late 8-cell stage synchronically 74 hours post activation were collected and used for this experiment.
For preparation of the control IVF embryos, several donated early 8-cell stage IVF embryos were thawed and cultured for 5-7 hours to allow them to reach late 8-cell stage before being processed. After removal of the zona pellucida, the denuded embryos were washed 3 times in PBS, loaded into RNAse and DNAse free PCR tubes, spin downed, and snap frozen in liquid nitrogen. Then, they were kept at −80° C. until use. As controls, dermal fibroblast cells of somatic nuclear donors were also prepared. Those fibroblast cells were cultured in a 25 cm^2 flask in DMEM 10% FBS, and approximately 10,000 cells/donor were collected, snap frozen, and stored at −80° C. until use.
Five 8-cell embryos for each group were directly lysed and used for cDNA synthesis using SMART-Seq v4 Ultra Low Input RNA Kit (Clontech). For MEF donor, 10 ng total RNA was used for cDNA synthesis using SMART-Seq v4 Ultra Low Input RNA Kit. After amplification, the cDNA samples were fragmented using Covaris sonicator M220 to an average size of 150 bp (Covaris). Sequencing libraries were made with the fragmented DNA using NEBNext Ultra DNA Library Prep Kit for Illumina according to manufacturer's instruction (New England Biolabs) with different barcodes. For each RNA-seq analysis of hESCs, 1 μg total RNA was used for mRNA purification. Barcoded RNA-seq libraries were generated using NEBNext Ultra Directional RNA Library Prep Kit for Illumina (New England Biolabs). Single end 50 bp sequencing was performed on a HiSeq 2500 sequencer (Illumina). Sequencing reads were mapped to the human genome (hg19) with Tophat2. All programs were performed with default settings (unless otherwise specified). At least 22 million uniquely mapped reads were obtained for each sequencing library, and subsequently assembled into transcripts guided by the reference annotation (Refseq gene models) with Cufflinks v2.0.2. Expression level of each gene was quantified with normalized FPKM (fragments per kilobase of exon per million mapped fragments). Statistical analyses were performed with R (available at: “www.r-project.org/”). Independent 2 group Wilcoxon rank sum tests were used to compare distributions using the wilcox.test function in R. Pearson's r coefficient was calculated using the cor function with default parameters. The hierarchical clustering analysis of the global gene expression pattern in different samples was carried out using heatmap.2 function (gplots package) in R.

KDM4A mRNA: in vitro transcribed mRNA of full length human KDM4A/JHDM3A cDNA, an H3K9me3 demethylase (SEQ ID NO: 1)
ZNF826P Fold Change (log2) [KDM4A SCNT/Control SCNT] (8-cell embryos): 2.67 log2 | ZNHIT6 Fold Change (log2) [KDM4A SCNT/Control SCNT] (8-cell embryos): 1.58 log2 | 12-Sep Expression level (FPKM) (KDM4A SCNT 8-cell embryos): 0.3 FPKM | AASDH Expression level (FPKM) (KDM4A SCNT 8-cell embryos): 2.84 FPKM | ACBD5 Expression level (FPKM) (KDM4A SCNT 8-cell embryos): 1.62 FPKM | ALG5 Expression level (FPKM) (KDM4A SCNT 8-cell embryos): 9.71 FPKM | ALPPL2 Expression level (FPKM) (KDM4A SCNT 8-cell embryos): 3.65 FPKM | APOC1P1 Expression level (FPKM) (KDM4A SCNT 8-cell embryos): 0.43 FPKM | ATP5J2-PTCD1 Expression level (FPKM) (KDM4A SCNT 8-cell embryos): 4.51 FPKM | BEX2 Expression level (FPKM) (KDM4A SCNT 8-cell embryos): 2.68 FPKM | BLVRB Expression level (FPKM) (KDM4A SCNT 8-cell embryos): 2.11 FPKM | BTAF1 Expression level (FPKM) (KDM4A SCNT 8-cell embryos): 1.46 FPKM | BTK Expression level (FPKM) (KDM4A SCNT 8-cell embryos): 1.67 FPKM | BUD31 Expression level (FPKM) (KDM4A SCNT 8-cell embryos): 76.07 FPKM | C1D Expression level (FPKM) (KDM4A SCNT 8-cell embryos): 97 FPKM | C2orf74 Expression level (FPKM) (KDM4A SCNT 8-cell embryos): 0.41 FPKM | C11orf67 Expression level (FPKM) (KDM4A SCNT 8-cell embryos): 28.21 FPKM | C12orf60 Expression level (FPKM) (KDM4A SCNT 8-cell embryos): 46.22 FPKM | C16orf91 Expression level (FPKM) (KDM4A SCNT 8-cell embryos): 9.96 FPKM | C17orf89 Expression level (FPKM) (KDM4A SCNT 8-cell embryos): 0.75 FPKM | C18orf56 Expression level (FPKM) (KDM4A SCNT 8-cell embryos): 0.33 FPKM | C20orf7 Expression level (FPKM) (KDM4A SCNT 8-cell embryos): 2.28 FPKM | CAB39L Expression level (FPKM) (KDM4A SCNT 8-cell embryos): 4.06 FPKM | CCAR1 Expression level (FPKM) (KDM4A SCNT 8-cell embryos): 4.62 FPKM | CCDC86 Expression level (FPKM) (KDM4A SCNT 8-cell embryos): 2.88 FPKM | CCL2 Expression level (FPKM) (KDM4A SCNT 8-cell embryos): 6.1 FPKM | CCL15 Expression level (FPKM) (KDM4A SCNT 8-cell embryos): 0.89 FPKM | CELA3B Expression level (FPKM) (KDM4A SCNT 8-cell embryos): 0.49 FPKM | CENPC1 Expression level (FPKM) (KDM4A SCNT 8-cell embryos): 7.41 FPKM | CLC Expression level (FPKM) (KDM4A SCNT 8-cell embryos): 13.82 FPKM | CLDN6 Expression level (FPKM) (KDM4A SCNT 8-cell embryos): 3.54 FPKM | CLK4 Expression level (FPKM) (KDM4A SCNT 8-cell embryos): 19.9 FPKM | CNKSR3 Expression level (FPKM) (KDM4A SCNT 8-cell embryos): 0.29 FPKM | CNPY4 Expression level (FPKM) (KDM4A SCNT 8-cell embryos): 5.19 FPKM | COX7B2 Expression level (FPKM) (KDM4A SCNT 8-cell embryos): 0.79 FPKM | COX17 Expression level (FPKM) (KDM4A SCNT 8-cell embryos): 26.62 FPKM | CSAG1 Expression level (FPKM) (KDM4A SCNT 8-cell embryos): 2.22 FPKM | CSTF3 Expression level (FPKM) (KDM4A SCNT 8-cell embryos): 28.96 FPKM | CUL2 Expression level (FPKM) (KDM4A SCNT 8-cell embryos): 14.32 FPKM | CXorf61 Expression level (FPKM) (KDM4A SCNT 8-cell embryos): 0.85 FPKM | DDX26B Expression level (FPKM) (KDM4A SCNT 8-cell embryos): 1.77 FPKM | DEFB122 Expression level (FPKM) (KDM4A SCNT 8-cell embryos): 0.61 FPKM | DLEU7 Expression level (FPKM) (KDM4A SCNT 8-cell embryos): 2.91 FPKM | DNASE2 Expression level (FPKM) (KDM4A SCNT 8-cell embryos): 0.61 FPKM | DRAM1 Expression level (FPKM) (KDM4A SCNT 8-cell embryos): 0.63 FPKM | ECE2 Expression level (FPKM) (KDM4A SCNT 8-cell embryos): 1.18 FPKM | EIF1AD Expression level (FPKM) (KDM4A SCNT 8-cell embryos): 9.43 FPKM | ELL2 Expression level (FPKM) (KDM4A SCNT 8-cell embryos): 1.39 FPKM | FAM9A Expression level (FPKM) (KDM4A SCNT 8-cell embryos): 1.32 FPKM | FAM19A3 Expression level (FPKM) (KDM4A SCNT 8-cell embryos): 1.7 FPKM | FAM83D Expression level (FPKM) (KDM4A SCNT 8-cell embryos): 2.53 FPKM | FAM133B Expression level (FPKM) (KDM4A SCNT 8-cell embryos): 6.06 FPKM | FAM151A Expression level (FPKM) (KDM4A SCNT 8-cell embryos): 1.01 FPKM | FAM162A Expression level (FPKM) (KDM4A SCNT 8-cell embryos): 19.35 FPKM | FAM200A Expression level (FPKM) (KDM4A SCNT 8-cell embryos): 1.23 FPKM | FASTKD5 Expression level (FPKM) (KDM4A SCNT 8-cell embryos): 4.41 FPKM | FBXL12 Expression level (FPKM) (KDM4A SCNT 8-cell embryos): 1.8 FPKM | FMR1NB Expression level (FPKM) (KDM4A SCNT 8-cell embryos): 0.18 FPKM | FOXN2 Expression level (FPKM) (KDM4A SCNT 8-cell embryos): 5.53 FPKM | GALM Expression level (FPKM) (KDM4A SCNT 8-cell embryos): 3.67 FPKM | GIP Expression level (FPKM) (KDM4A SCNT 8-cell embryos): 12.94 FPKM | GJA1 Expression level (FPKM) (KDM4A SCNT 8-cell embryos): 1.64 FPKM | GOLGB1 Expression level (FPKM) (KDM4A SCNT 8-cell embryos): 1.36 FPKM | GUCA1B Expression level (FPKM) (KDM4A SCNT 8-cell embryos): 0.83 FPKM | GUSBP1 Expression level (FPKM) (KDM4A SCNT 8-cell embryos): 7.96 FPKM | GUSBP4 Expression level (FPKM) (KDM4A SCNT 8-cell embryos): 2.42 FPKM | H3F3A Expression level (FPKM) (KDM4A SCNT 8-cell embryos): 14.47 FPKM | IFI30 Expression level (FPKM) (KDM4A SCNT 8-cell embryos): 25.62 FPKM | IL13RA2 Expression level (FPKM) (KDM4A SCNT 8-cell embryos): 0.26 FPKM | KHDC1 Expression level (FPKM) (KDM4A SCNT 8-cell embryos): 85.25 FPKM | KHDC1L Expression level (FPKM) (KDM4A SCNT 8-cell embryos): 668.53 FPKM | KITLG Expression level (FPKM) (KDM4A SCNT 8-cell embryos): 0.93 FPKM | KLF17 Expression level (FPKM) (KDM4A SCNT 8-cell embryos): 8.4 FPKM | KLK4 Expression level (FPKM) (KDM4A SCNT 8-cell embryos): 1.41 FPKM | KLK11 Expression level (FPKM) (KDM4A SCNT 8-cell embryos): 7.07 FPKM | KPTN Expression level (FPKM) (KDM4A SCNT 8-cell embryos): 6.84 FPKM | LARP6 Expression level (FPKM) (KDM4A SCNT 8-cell embryos): 0.41 FPKM | LEMD3 Expression level (FPKM) (KDM4A SCNT 8-cell embryos): 0.59 FPKM | LIM2 Expression level (FPKM) (KDM4A SCNT 8-cell embryos): 2.01 FPKM | LINC00263 Expression level (FPKM) (KDM4A SCNT 8-cell embryos): 3.81 FPKM | LOC284408 Expression level (FPKM) (KDM4A SCNT 8-cell embryos): 1.36 FPKM | LOC347411 Expression level (FPKM) (KDM4A SCNT 8-cell embryos): 1.62 FPKM | LOC401397 Expression level (FPKM) (KDM4A SCNT 8-cell embryos): 11.19 FPKM | LOC643955 Expression level (FPKM) (KDM4A SCNT 8-cell embryos): 3.18 FPKM | LOC653513 Expression level (FPKM) (KDM4A SCNT 8-cell embryos): 1.03 FPKM | LOC723809 Expression level (FPKM) (KDM4A SCNT 8-cell embryos): 3.84 FPKM | LOC100129515 Expression level (FPKM) (KDM4A SCNT 8-cell embryos): 9.35 FPKM | LOC100289211 Expression level (FPKM) (KDM4A SCNT 8-cell embryos): 8.18 FPKM | LOC100505854 Expression level (FPKM) (KDM4A SCNT 8-cell embryos): 4.77 FPKM | LOC100506305 Expression level (FPKM) (KDM4A SCNT 8-cell embryos): 0.91 FPKM | LOC100506668 Expression level (FPKM) (KDM4A SCNT 8-cell embryos): 8.79 FPKM | LUC7L Expression level (FPKM) (KDM4A SCNT 8-cell embryos): 2.91 FPKM | M1 Expression level (FPKM) (KDM4A SCNT 8-cell embryos): 2.52 FPKM | MAGEA12 Expression level (FPKM) (KDM4A SCNT 8-cell embryos): 0.25 FPKM | MAGEB2 Expression level (FPKM) (KDM4A SCNT 8-cell embryos): 0.79 FPKM | MATR3 Expression level (FPKM) (KDM4A SCNT 8-cell embryos): 9.43 FPKM | MED31 Expression level (FPKM) (KDM4A SCNT 8-cell embryos): 27.22 FPKM | MFSD11 Expression level (FPKM) (KDM4A SCNT 8-cell embryos): 7.94 FPKM | MPV17L2 Expression level (FPKM) (KDM4A SCNT 8-cell embryos): 4.48 FPKM | MRPL28 Expression level (FPKM) (KDM4A SCNT 8-cell embryos): 1.56 FPKM | MTERF Expression level (FPKM) (KDM4A SCNT 8-cell embryos): 3.15 FPKM | NANOGNB Expression level (FPKM) (KDM4A SCNT 8-cell embryos): 30.92 FPKM | NDUFAF2 Expression level (FPKM) (KDM4A SCNT 8-cell embryos): 6.37 FPKM | NMNAT1 Expression level (FPKM) (KDM4A SCNT 8-cell embryos): 3.71 FPKM
